Values quoted from earlier work as cited in patent US20160324770A1, “INTRATHECAL ADMINISTRATION, PREFERABLY INTRAVENTRICULAR, OF MTOR INHIBITORS FOR THE THERAPY OF SOME NEURODEGENERATIVE, NEUROINFLAMMATORY AND NEURO-ONCOLOGIC DISEASES” (priority 2012, published 2016).

Settings: cited from earlier work

In the case of `CO[C@H]1C[C@@H]2CC[C@@H](C)[C@@](O)(O2)C(=O)C(=O)N2CCCC[C@H]2C(=O)O[C@H]([C@H](C)C[C@@H]2CC[C@@H](O)[C@H](OC)C2)CC(=O)[C@H](C)/C=C(\C)[C@@H](O)[C@@H](OC)C(=O)[C@H](C)C[C@H](C)/C=C/C=C/C=C/1C` [rapamycin], the half-life (according to the FDA) is listed as 62 h and the “half-life compared to everolimus” value is listed as “more than double that time”.
